Columns and labels:
[1] = test system: platelet NADPH oxidase; assay: Platelet NADPH oxidase activation: ROS production in AA-stimulated platelets by cytofluorimetry; type: cell-based, human; conditions: AA 0.5 mM
Description: To obtain platelet rich plasma (PRP) from HC and HS patients, samples were centrifuged 15 min at 180 g. To avoid leukocyte contamination, only the top 75% of the PRP was collected. Platelet pellet was suspended in HEPES buffer, pH 7.4 (2×10^8 platelets/mL, unless otherwise noted) and processed differently according to the type of experiment to be carried out.
To test NADPH oxidase activity, the levels of ROS in platelets from 5 human healthy subjects were measured by cytofluorimetry in the presence and in the absence of specific NADPH oxidase inhibitors, such as apocynin and the gp91^phox blocking peptide gp91ds-tat. Platelets were incubated with 2′,7′-dichlorofluorescin diacetate […] for 15 minutes at 37° C. After incubation, 100 μl of the sample was treated with arachidonic acid (AA, 0.5 mM) in presence or less of apocynin (100 μM) or the gp91^phox specific blocking peptide (gp91ds-tat, 50 μM). Then 10 μl of each sample was diluted with 1 ml of PBS and analyzed by flow cytometry. Basal OFR level in resting platelets was expressed as mean fluorescence (MF), AA-induced OFR production was expressed as stimulation index (S.I.=mean level of fluorescence in AA-stimulated platelet/mean level of fluorescence in unstimulated platelets) (Pignatelli P et al. Blood (1998) 95:484-490.

[2] = test system: platelets; assay: sgp91phox in supernatant of platelets by ELISA with the monoclonal antibody of the invention; type: cell-based, human
[3] = test system: polymorphonuclear leukocytes (PMN); assay: sgp91phox in supernatant of PMN by ELISA; type: cell-based, human; conditions: PMA 10 μM; unstimulated 1.53±0.66
Description: Polymorphonuclear leukocytes (PMN) were isolated from freshly taken EDTA-blood from healthy volunteers (n=5, healthy subjects) by dextran enhanced sedimentation of red blood cells, Ficoll-Histopaque density centrifugation, lysis of remaining erythrocytes with distilled water and washing of cells with Hank's balanced salt solution (HBSS) in the absence of any divalent cations. Finally, the cell pellet was suspended in 1 ml of HBSS and stimulated with or without 10 μM of phorbol 12-myristate 13-acetate (PMA). To evaluate sgp91phox in PMN the supernatant was analyzed by ELISA method as above reported.
(§1) To evaluate the source of sgp91phox we isolated platelets, PMN and lymphocytes/monocytes from the same blood sample.

[4] = test system: platelet gp91phox; assay: gp91phox expression on platelets by flow cytometry in the clinical study; type: in vivo, human; conditions: after 30 days of treatment
Description: To evaluate gp91^phox expression on platelets, 50 μl of stabilized whole blood (see above) were incubated for 30 minutes with 5 μl of monoclonal antibody against gp91^phox (20 μg/ml; Santa Cruz), and 5 μl of PE-conjugated monoclonal antibody against CD61 (Coulter) (20 μg/ml), respectively, as described in Martino F. et al., PEDIATRICS (2008), supra. The samples incubated with the monoclonal antibody against gp91^phox were then incubated with a secondary IgG FITC-conjugated antibody against mouse. After incubation, 1 ml of 1× PBS was added to proceed with the cytofluorimetric analysis.
Isotypic controls were carried out by preparing a sample with a non-specific anti-mouse IgG-FITC e IgG1-PE with the same ratio f/p for FITC e PE. The adequate concentration of the monoclonal antibodies used was determined in preliminary tests (not shown).
All the samples were analyzed within 15 minutes from dilution. FITC fluorescence was detected with an Epics XL-MCL cytometer (Coulter, Milan Italy) at 525 nm, while PE fluorescence was detected at 575 nm. All the parameters were grouped with a 4-decade logarithmic amplification.
Spectral overlap was balanced by fluorescence compensation, as defined in preliminary tests. […] Platelets and platelet-platelet aggregates were identified by logical gating according to their CD61 phycoerythrin fluorescence and forward scatter characteristics. […]

[5] = test system: hypercholesterolemic patients; conditions: group B, diet + atorvastatin 10 mg/day, end of 30 days, p<0.001
[6] = test system: sgp91phox; assay: sgp91phox in sera of the clinical study by the ELISA assay of the invention; type: in vivo, human; conditions: group B
Description: The samples tested were sera from the same sampling of the clinical study of Example 2, stored frozen at −80° C. up to the use.
The proprietary primary policlonal antibody against SEQ ID NO 1 and the primary monoclonal antibody against SEQ ID NO 3 (i.e., the proprietary antibody of the present invention from the hybridoma deposited at ATCC on Jun. 10, 2010 under No. SD-6311) already described above were diluted 1:100 with coating buffer (catalog. C3041, Sigma Chemicals) and 100 μl of this primary antibody solution were placed in 96-well ELISA plates for 1 h at room temperature (RT). After incubation the content of each well in the plates was removed and the wells were washed three times with washing buffer (Tris-buffered saline 50 mM, pH 8.0, Tween 20; catalog. T9039, Sigma Chemicals).
Subsequently, 200 μl of saturation buffer containing 1% BSA (catalog T6789, Sigma Chemicals) were added to the wells for 30 minutes at RT. The wells were then washed three times with the washing buffer, as above.
100 μl of standard or of sample to be assayed were then added to the wells and the incubation was carried out for 1 h at RT.
A standard curve was obtained by using increasing concentrations of the gp91^phox peptide of SEQ ID NO 1 or of the peptide of SEQ ID NO 3 (i.e., 64 pg/ml; 32 pg/ml; 16 pg/ml; 8 pg/ml) obtained by diluting the peptides in buffer, and incubated for 1 h see FIG. 4, panel A and panel B.
100 μl of a secondary goat-anti-rabbit IgG-HRP antibody (Santa Cruz, catalog sc2004) or of a secondary goat anti-mouse IgG-HRP antibody (Santa Cruz, catalog sc 2060) diluted 1:100 with coating buffer, were then incubated at RT for 1 h.
After aspirating the contents of the wells and washing three times with washing buffer, as described above, 100 μl of substrate (Santa Cruz, catalog SK-4400) were added to the wells for 30 minutes at RT. At the end of the incubation, 100 μl of H2SO4 2M (Merck, catalog 30148297) were also added to the wells. Subsequently, reading of the developed color was carried out with a spectrophotometer at 450 nm.
The final concentration of the samples were calculated by using the proper standard curve obtained with a gp91^phox peptide, as described above.

[7] = test system: lymphocytes/monocytes; assay: sgp91phox in supernatant of lymphocytes/monocytes by ELISA; type: cell-based, human; conditions: LPS 100 ng/ml; unstimulated 1.11±0.55
Description: Blood samples were collected in heparinized tubes (10 IU/ml). Lynphocytes/Monocyte were isolated after centrifugation of the blood from healthy volunteers (n=5, healthy subjects) with a polysucrose-sodium diatrizoate solution, 1.077 g/ml density and 280 mOsm osmolarity (Lymphoprep; Nycomed, Oslo, Norway) at 800 g at 20° C. The Lynphocytes/Monocyte cell layer was collected and the cells were thus washed two times in a solution of cold phosphate-buffered saline (pH 7.2), supplemented with 1% fetal calf serum and 2 mmol/l EDTA (Sigma-Aldrich, Milano, Italy). The cell suspension was stimulated with or without lipopolysaccharide (100 ng/ml) (LPS), sgp91 content in the supernatant was evaluated by ELISA method as above reported.
as §1

[8] = 30 days atorvastatin vs baseline

`CCCCC/C=C\C/C=C\C/C=C\C/C=C\CCCC(=O)O` [AA, arachidonic acid] was tested, and the “ROS production after platelet activation” value [1] was “increase” and the “sgp91phox in supernatant of stimulated platelets” value ([2]; AA-stimulated, unstimulated 1.18±0.84) was 7.05 ± 2.04 pg/mL.
For `CCCCCCCCCCCCCC(=O)O[C@@H]1[C@@H](C)[C@@]2(O)[C@@H](C=C(CO)C[C@]3(O)C(=O)C(C)=C[C@@H]23)[C@@H]2C(C)(C)[C@]12OC(C)=O` [PMA, phorbol 12-myristate 13-acetate], the “sgp91phox in supernatant of stimulated PMN” value [3] was 11.85 ± 3.23 pg/mL.
For `COc1cc(C(C)=O)ccc1O` [apocynin], the “effect on AA-induced ROS production in platelets” value ([1]; apocynin 100 μM, gp91ds-tat 50 μM) was “inhibited” and the “levels of sgp91phox shed in the cell medium of AA-activated platelets” value ([2]; specific NADPH oxidase inhibitors, ELISA of supernatant) was “decrease”.
`CC(C)c1c(C(=O)Nc2ccccc2)c(-c2ccccc2)c(-c2ccc(F)cc2)n1CC[C@@H](O)C[C@@H](O)CC(=O)O` [atorvastatin] was tested, and the “variation in platelet gp91phox after treatment” value [4] was “no significant variation”, the serum total cholesterol ([5]; from 276±46 at baseline) was 208 ± 38 mg/dL and the urinary isoprostanes levels ([5]; from 383±51 at baseline) was 241±58 pg/mg of creatinine. The “reduction in sgp91phox, ELISA with monoclonal antibody (SD-6311)” value [6, 8] was −25%, the “reduction in sgp91phox, ELISA with polyclonal antibody” value [6, 8] was −33% and the “sgp91phox serum level, ELISA with monoclonal antibody (SD-6311)” value ([6]; end of 30 days atorvastatin, from 32.5±4.6 at baseline, p<0.001) was 23.5 ± 6.5 pg/mL. For the same molecule, the “sgp91phox serum level, ELISA with polyclonal antibody” value ([6]; end of 30 days atorvastatin, from 36.6±5.6 at baseline, p<0.001) was 24.5 ± 7.7 pg/mL.
lipopolysaccharide [LPS] was tested, and the “sgp91phox in supernatant of stimulated lymphocytes/monocytes” value [7] was 7.5 ± 2.64 pg/mL.

From patent US20120156704A1, “IN VITRO METHOD FOR DETECTING GP91PHOX AS A MARKER OF OXIDATIVE STRESS” (BIOS INTERNATIONAL S.R.L., priority 2009, published 2012)
